Reference: ChEMBL document CHEMBL1131683, “Preparation of pyrrolidine and isoxazolidine benzamidines as potent inhibitors of coagulation factor Xa” (Bioorg Med Chem Lett, 1999)
pKi: −log10 of the molar value.

How the values were obtained:
[1] = Half life value in rabbits; assay type: ADME, Oryctolagus cuniculus; details: rabbit, in vivo
[2] = Clearance rate in rabbits; assay type: ADME, organism-based, Oryctolagus cuniculus; details: rabbit, in vivo
[3] = molecular target: Coagulation factor X (Homo sapiens, UniProt P00742); assay: Binding affinity against Coagulation factor X in an enzyme inhibition assay.
Coagulation factor X, sequence (P00742 41-179 limits assumed): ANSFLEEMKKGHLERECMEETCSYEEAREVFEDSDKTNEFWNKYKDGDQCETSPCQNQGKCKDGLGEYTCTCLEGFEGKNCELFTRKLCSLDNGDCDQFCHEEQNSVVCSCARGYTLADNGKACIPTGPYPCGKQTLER
Coagulation factor X, sequence (P00742 235-488 limits assumed): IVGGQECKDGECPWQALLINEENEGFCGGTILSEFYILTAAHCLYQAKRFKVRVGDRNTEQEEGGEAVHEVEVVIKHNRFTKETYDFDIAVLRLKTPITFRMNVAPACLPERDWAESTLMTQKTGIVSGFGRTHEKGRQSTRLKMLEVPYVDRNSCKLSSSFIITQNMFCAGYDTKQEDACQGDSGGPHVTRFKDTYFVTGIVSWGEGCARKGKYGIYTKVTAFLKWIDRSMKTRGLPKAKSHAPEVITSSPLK

[4] = molecular target: Serine protease 1 (Homo sapiens, UniProt P07477); assay: Binding affinity against trypsin in an enzyme inhibition assay.
Serine protease 1, sequence (P07477 whole entry): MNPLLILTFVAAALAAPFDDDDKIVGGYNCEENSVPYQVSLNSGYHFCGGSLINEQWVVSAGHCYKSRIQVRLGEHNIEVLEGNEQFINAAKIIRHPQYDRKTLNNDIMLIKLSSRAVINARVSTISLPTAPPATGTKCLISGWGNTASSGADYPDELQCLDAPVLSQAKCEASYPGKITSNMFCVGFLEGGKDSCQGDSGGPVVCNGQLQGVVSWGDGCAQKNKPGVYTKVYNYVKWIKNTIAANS

[5] = species: Oryctolagus cuniculus; assay: Compound was tested for its effect in rabbit arterio-venous (A-V) shunt thrombosis model and the inhibitory dose was reported; assay type: functional

In the case of `CC(C)OC(=O)[C@@H]1CN(Cc2ccc(-c3ccccc3S(N)(=O)=O)cc2)O[C@H]1c1cccc(C(=N)N)c1.O=C(O)C(F)(F)F.O=C(O)C(F)(F)F`, the half-life [1] was less than 1 h, the clearance [2] was greater than 33.3 mL/min/kg and the pKi [3] was 8.74. The pKi [4] was 7.03.

In the case of `CC(=O)[C@@H]1CN(Cc2ccc(-c3ccccc3S(N)(=O)=O)cc2)C[C@H]1c1cccc(C(=N)N)c1`, the pKi [3] was 7.44 and the pKi [4] was 6.70.

For `COC(=O)CN(CCCc1ccc(-c2ccccc2S(N)(=O)=O)cc1)c1cccc(C(=N)N)c1`, the pKi [3] was 8.89.

With `N=C(N)c1cccc([C@@H]2CN(Cc3ccc(-c4ccccc4S(N)(=O)=O)cc3)C[C@H]2C(N)=O)c1` the pKi [3] was 6.82 and the pKi [4] was 6.30.

Compound `COC(=O)[C@H]1CN(Cc2ccc(-c3ccccc3S(N)(=O)=O)cc2)C[C@H]1c1cccc(C(=N)N)c1` has a pKi [3] of 6.77 and a pKi [4] of less than 5.80.

`CN(C)C(=O)[C@@H]1CN(Cc2ccc(-c3ccccc3S(N)(=O)=O)cc2)C[C@H]1c1cccc(C(=N)N)c1` gave a pKi [3] of 6.40.

Work on `CCOC(=O)[C@]1(C)CN(Cc2ccc(-c3ccccc3S(N)(=O)=O)cc2)C[C@H]1c1cccc(C(=N)N)c1` yielded a pKi [3] of 7.59 and a pKi [4] of 6.12.

Work on `CC(C)OC(=O)[C@@H]1CN(Cc2ccc(-c3ccccc3S(N)(=O)=O)cc2)C[C@H]1c1cccc(C(=N)N)c1.O=C(O)C(F)(F)F.O=C(O)C(F)(F)F` yielded a half-life [1] of less than 1 h, a clearance [2] greater than 33.3 mL/min/kg and a pKi [3] of 8.24. It also gave a pKi [4] of 7.01.

`N=C(N)c1cccc([C@@H]2CN(Cc3ccc(-c4ccccc4S(N)(=O)=O)cc3)C[C@@H]2C(=O)O)c1` showed a pKi [3] of 6.34.

For `COC(=O)[C@H]1CN(Cc2ccc(-c3ccccc3S(N)(=O)=O)cc2)C[C@@H]1c1cccc(C(=N)N)c1`, the pKi [3] was 7.89 and the pKi [4] was 6.70.

For `COC(=O)[C@@H]1CN(Cc2ccc(-c3ccccc3S(N)(=O)=O)cc2)O[C@H]1c1cccc(C(=N)N)c1`, the pKi [3] was 8.51 and the pKi [4] was 7.16.

For `CCCCOC(=O)[C@@H]1CN(Cc2ccc(-c3ccccc3S(N)(=O)=O)cc2)C[C@H]1c1cccc(C(=N)N)c1`, the pKi [3] was 7.92 and the pKi [4] was 6.96.

For `N=C(N)c1cccc([C@@H]2CN(Cc3ccc(-c4ccccc4S(N)(=O)=O)cc3)C[C@H]2C(=O)O)c1`, the pKi [3] was 6.22.

Work on `COC(=O)[C@@H]1CN(Cc2ccc(-c3ccccc3S(N)(=O)=O)cc2)C[C@H]1c1cccc(C(=N)N)c1.O=C(O)C(F)(F)F.O=C(O)C(F)(F)F` (stereo in doubt; 10) yielded a pKi [3] of 8.32, an ID50 [5] greater than 1.4 µM/h/kg and a pKi [4] of 7.20.

Compound `COC(=O)[C@@H]1CN(Cc2ccc(-c3ccccc3S(N)(=O)=O)cc2)C[C@H]1c1cccc(C(=N)N)c1` (stereo in doubt; 15) has a pKi [3] of 8.47 and a pKi [4] of 7.28.
